5 molecules from US12528814B2, “Bifunctional degraders of interleukin-1 receptor-associated kinases and therapeutic use thereof” (NURIX THERAPEUTICS, INC., priority 2020, dated 2026) can be followed below.

A word on the Dmax: it is the greatest extent of degradation seen. The DC50 is the concentration at which degradation of the target reaches its halfway point. What is called EC50 is the concentration needed to bring the measured effect to its halfway point.

Some results are limits rather than exact numbers.

Test [1] has as its target T1, IRAK4 (Homo sapiens (Human), UniProt Q9NWZ3). The test can be described thus: IRAK4 Degradation HiBiT Assay. Particulars: for Dmax: Jurkat. In general terms: HiBiT is a short tag that completes a luciferase, so light tracks the accessible tagged protein.
Test [2] deals with T1, IRAK4. The test can be described thus: Western Assay for IRAK4 Degradation. Particulars: wild-type Jurkat cells, 4 hrs; approximate. The class given is cell-based. The method, then:
DMSO was stamped into wells A12-H12 at 500 nL/well (NC, Negative Control, maximum signal). […] Following incubation, plates were centrifuged for 5 min at 1600 rpm. […] Cells were lysed overnight at −20° C. Plates were centrifuged for 5 min at 1600 rpm and lysate supernatants were transferred to storage plates. […] Samples were separated by running gels at constant 200 V in NuPAGE MES SDS Running Buffer. Following electrophoresis, proteins were transferred to nitrocellulose membranes using an iBlot Gel Transfer Device and iBlot Gel Transfer Stacks (Thermo cat. no. IB21001 and IB301001) and transfer method PO (20V 1 min, 23V 4 min, 25V 2 min). Membranes were blocked for 1 hr in 5% milk solution (TBS (0.2% Tween-20)).
Following blocking, membranes were incubated with primary antibody overnight at 4° C. with gentle shaking. […] Blots were washed 3× in TBS (0.2% Tween-20), 5-10 min per wash. Following washes, blots were incubated in secondary HRP-conjugated antibody (Promega anti-Rabbit IgG (H+L) HRP, cat. no. W4011), 1:5000 in 5% milk solution (TBS (0.2% Tween-20)), for 1 hr at room temperature with gentle shaking. Blots were washed 3× in TBS (0.2% Tween-20), 5-10 min per wash. Blots were incubated with 1:1 mix of ECL reagents 1 & 2 (Amersham ECL Western Blotting Detection Reagent, cat. no. RPN2106) for 2-3 min at room temperature. Bands were visualized using a Protein Simple imager. […] The data was analyzed using Alpha View software. The densitometric reading for each sample band was normalized to that of the corresponding actin band per lane.

In test [3] the target is T1, IRAK4. The test can be described thus: IRAK4 Degradation HTRF Assay. The following applies: wild-type Jurkat cells, 4 hrs. The class given is cell-based. The procedure: DMSO was stamped into wells A12-H12 at 400 nL/well (NC, Negative Control, maximum signal). […] Following incubation, plates were centrifuged for 5 min at 1600 rpm. […] Cells were incubated 30 min at room temperature with gentle shaking. 16 μL each lysate was transferred to 96-well detection plate included in Cisbio Total IRAK4 HTRF Assay Kit (cat. no. 63ADK108PEG). To the lysates was added 2 μL each of Total-IRAK4 d2 antibody and Total-IRAK4 Cryptate antibody (Cisbio Total IRAK4 HTRF Assay Kit). Plates were incubated overnight at RT. Fluorescence emission at 665 nm and 620 nm was read using an EnVision plate reader. The HTRF Ratio was calculated per sample using the following equation: HTRF Ratio=(665 nm signal/620 nm signal)×10,000

For test [4], the target named is T1, IRAK4. Put plainly: IRAK4 Degradation Competition/Rescue Assay. It counts as cell-based. Particulars: degrader 1 μM; 1 hr pre-treatment with Nedd8i (5 μM) or MG-132 (20 or 50 μM); HiBiT Jurkat clone 8D5. The source says:
IRAK4 Degradation Competition/Rescue Assay

In a further test the test system is Jurkat cells. The test can be described thus: Viability Assay (Celltiter-Glo). It counts as cell-based. The following applies: Homo sapiens, 4 hrs, read-out: Viability assessment EC50. The method, then: Viability Assay (Celltiter-Glo)
DMSO was stamped into empty wells at 60 nL/well (NC, Negative Control, maximum signal). […] Following incubation, the CellTiter-Glo assay was performed according to manufacturer's instructions (Promega CellTiter-Glo Luminescent Cell Viability Assay, cat. no. G7570).
In general terms: Cellular ATP, detected with luciferase, serves as a proxy for viable cell number.

The next test deals with GSPT1 (Homo sapiens (Human), UniProt P15170+Q96SW2). Put plainly: Western Assay for GSPT1 Degradation. It counts as cell-based. Particulars: wild-type Jurkat cells, 24 hrs. The method, then:
Biological Example 4 Western Assay for IRAK4, IRAK1 and GSPT1 Degradation
DMSO was stamped into wells A12-H12 at 500 nL/well (NC, Negative Control, maximum signal). […] Following incubation, plates were centrifuged for 5 min at 1600 rpm. Media was removed and cell pellets were lysed in 50 μL lysis buffer (RIPA buffer (Fisher, PI89901), cOmplete Mini EDTA-free protease inhibitor (Sigma 11836170001), Protease Inhibitor Cocktail (Sigma, P2714), Phosphatase Inhibitor Cocktail 2 and 3 (Sigma, P5726 and P0044), Benzonase (Sigma, E1014)). Cells were lysed overnight at −20° C. Plates were centrifuged for 5 min at 1600 rpm and lysate supernatants were transferred to storage plates. Protein levels were determined by BCA Assay performed according to manufacturer's protocol (EMD Millipore, cat. no. 71285-3). Samples were combined with (4×) LDS Sample Buffer and (10×) Reducing Agent and H2O to equally load 10 ug protein per lane of a 26-well NuPAGE 4-12% Bis-Tris protein gel (1.0 mm, Thermo cat. no. NP0326). Samples were separated by running gels at constant 200 V in NuPAGE MES SDS Running Buffer. Following electrophoresis, proteins were transferred to nitrocellulose membranes using an iBlot Gel Transfer Device and iBlot Gel Transfer Stacks (Thermo cat. no. IB21001 and IB301001) and transfer method PO (20V 1 min, 23V 4 min, 25V 2 min). Membranes were blocked for 1 hr in 5% milk solution (TBS (0.2% Tween-20)).
Following blocking, membranes were incubated with primary antibody overnight at 4° C. with gentle shaking. The primary antibodies and dilutions used were as follows: IRAK4—abcam ab3200612, 1:500; IRAK1—Cell Signaling Technologies D51G7 #4504, 1:500; GSPT1—Cell Signaling Technologies #14980, 1:500). Blots were washed 3× in TBS (0.2% Tween-20), 5-10 min per wash. Following washes, blots were incubated in secondary HRP-conjugated antibody (Promega anti-Rabbit IgG (H+L) HRP, cat. no. W4011), 1:5000 in 5% milk solution (TBS (0.2% Tween-20)), for 1 hr at room temperature with gentle shaking. Blots were washed 3× in TBS (0.2% Tween-20), 5-10 min per wash. Blots were incubated with 1:1 mix of ECL reagents 1 & 2 (Amersham ECL Western Blotting Detection Reagent, cat. no. RPN2106) for 2-3 min at room temperature. Bands were visualized using a Protein Simple imager. Blots were then re-probed with a combination of anti-actin antibody (Sigma Monoclonal Mouse Anti-3-Actin (clone AC-15), cat. no. A5441) and secondary HRP-conjugated antibody (Promega anti-Mouse IgG (H+L) HRP, cat. no. W4021) and similar steps were taken for incubation, wash, detection and visualization steps as above. The data was analyzed using Alpha View software. The densitometric reading for each sample band was normalized to that of the corresponding actin band per lane.

Where [5] appears, read: read-out: IRAK4 HiBit Dmax, C-terminal HiBiT-tagged Jurkat cells, 4 hrs, Tables 2-3.
[6] abbreviates: read-out: IRAK4 HiBit DC50, C-terminal HiBiT-tagged Jurkat cells, 4 hrs, Tables 2-3.
Where [7] appears, read: read-out: Cellular IRAK4 HiBiT: Dmax, Table 4, HiBiT-tagged Jurkat cells, 4 hrs.
[8] abbreviates: read-out: Cellular IRAK4 HiBiT: Dmax, Table 5, multiple runs, HiBiT-tagged Jurkat cells, 4 hrs.
Setting [9] is: read-out: Cellular IRAK4 HiBiT: DC50, Table 4, HiBiT-tagged Jurkat cells, 4 hrs.
The mark [10] stands for this setting: read-out: Cellular IRAK4 HiBiT: DC50, Table 5, multiple runs, HiBiT-tagged Jurkat cells, 4 hrs.

Sequence of GSPT1 (P15170 whole entry): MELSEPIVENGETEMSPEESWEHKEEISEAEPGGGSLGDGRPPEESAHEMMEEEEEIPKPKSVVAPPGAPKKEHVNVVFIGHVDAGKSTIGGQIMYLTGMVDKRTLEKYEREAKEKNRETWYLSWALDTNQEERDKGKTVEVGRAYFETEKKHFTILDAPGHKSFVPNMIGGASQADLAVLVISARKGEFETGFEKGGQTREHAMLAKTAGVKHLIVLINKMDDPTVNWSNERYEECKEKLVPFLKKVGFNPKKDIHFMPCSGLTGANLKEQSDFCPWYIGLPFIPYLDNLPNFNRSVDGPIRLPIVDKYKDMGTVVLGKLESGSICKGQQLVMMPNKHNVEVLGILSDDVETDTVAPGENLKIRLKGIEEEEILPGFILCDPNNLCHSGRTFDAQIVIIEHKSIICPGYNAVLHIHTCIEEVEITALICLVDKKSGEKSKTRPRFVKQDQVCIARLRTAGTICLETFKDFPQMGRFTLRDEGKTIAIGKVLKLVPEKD
Sequence of GSPT1 (Q96SW2 whole entry): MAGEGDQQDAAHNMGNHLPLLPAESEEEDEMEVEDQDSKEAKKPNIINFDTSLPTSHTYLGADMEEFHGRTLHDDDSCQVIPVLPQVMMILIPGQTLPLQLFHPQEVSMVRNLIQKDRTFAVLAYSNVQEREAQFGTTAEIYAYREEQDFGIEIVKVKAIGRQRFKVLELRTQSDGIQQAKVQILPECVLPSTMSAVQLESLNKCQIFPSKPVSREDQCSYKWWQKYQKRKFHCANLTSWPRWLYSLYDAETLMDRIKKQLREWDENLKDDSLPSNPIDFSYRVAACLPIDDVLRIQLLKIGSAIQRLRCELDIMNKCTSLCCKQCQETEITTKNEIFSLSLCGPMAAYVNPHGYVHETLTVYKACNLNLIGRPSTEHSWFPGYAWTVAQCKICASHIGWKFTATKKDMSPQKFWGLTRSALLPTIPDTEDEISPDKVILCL
Sequence of GSPT1 (Q16531 whole entry partner): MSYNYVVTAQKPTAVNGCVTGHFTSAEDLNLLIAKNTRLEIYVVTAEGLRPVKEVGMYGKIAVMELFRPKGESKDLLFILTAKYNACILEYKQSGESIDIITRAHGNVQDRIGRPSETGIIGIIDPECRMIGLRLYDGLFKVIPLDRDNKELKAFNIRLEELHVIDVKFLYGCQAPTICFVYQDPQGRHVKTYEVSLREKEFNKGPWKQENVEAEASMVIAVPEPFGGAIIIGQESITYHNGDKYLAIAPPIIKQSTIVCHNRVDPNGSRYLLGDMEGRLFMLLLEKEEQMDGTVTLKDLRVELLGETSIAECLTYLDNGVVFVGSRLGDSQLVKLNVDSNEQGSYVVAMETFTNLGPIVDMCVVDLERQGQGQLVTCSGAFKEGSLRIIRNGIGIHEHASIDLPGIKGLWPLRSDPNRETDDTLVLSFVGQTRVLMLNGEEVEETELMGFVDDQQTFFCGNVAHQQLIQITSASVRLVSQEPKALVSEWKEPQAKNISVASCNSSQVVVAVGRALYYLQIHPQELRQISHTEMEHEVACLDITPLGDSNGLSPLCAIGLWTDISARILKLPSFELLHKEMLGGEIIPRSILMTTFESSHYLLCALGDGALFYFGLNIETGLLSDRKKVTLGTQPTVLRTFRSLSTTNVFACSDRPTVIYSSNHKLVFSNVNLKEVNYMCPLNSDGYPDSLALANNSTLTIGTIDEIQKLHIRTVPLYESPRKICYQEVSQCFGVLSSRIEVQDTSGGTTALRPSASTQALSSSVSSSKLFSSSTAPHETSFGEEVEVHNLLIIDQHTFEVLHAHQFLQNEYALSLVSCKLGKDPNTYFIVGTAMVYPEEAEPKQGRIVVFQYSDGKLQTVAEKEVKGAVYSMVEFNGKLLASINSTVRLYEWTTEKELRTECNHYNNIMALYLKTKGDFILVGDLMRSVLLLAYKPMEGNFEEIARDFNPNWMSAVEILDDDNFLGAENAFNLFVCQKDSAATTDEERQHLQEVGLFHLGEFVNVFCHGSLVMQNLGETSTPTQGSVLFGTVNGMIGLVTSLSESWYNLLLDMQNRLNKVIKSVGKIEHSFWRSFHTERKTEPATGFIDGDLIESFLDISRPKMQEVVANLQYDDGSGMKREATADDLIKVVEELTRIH
T1 sequence (Q9NWZ3 whole entry): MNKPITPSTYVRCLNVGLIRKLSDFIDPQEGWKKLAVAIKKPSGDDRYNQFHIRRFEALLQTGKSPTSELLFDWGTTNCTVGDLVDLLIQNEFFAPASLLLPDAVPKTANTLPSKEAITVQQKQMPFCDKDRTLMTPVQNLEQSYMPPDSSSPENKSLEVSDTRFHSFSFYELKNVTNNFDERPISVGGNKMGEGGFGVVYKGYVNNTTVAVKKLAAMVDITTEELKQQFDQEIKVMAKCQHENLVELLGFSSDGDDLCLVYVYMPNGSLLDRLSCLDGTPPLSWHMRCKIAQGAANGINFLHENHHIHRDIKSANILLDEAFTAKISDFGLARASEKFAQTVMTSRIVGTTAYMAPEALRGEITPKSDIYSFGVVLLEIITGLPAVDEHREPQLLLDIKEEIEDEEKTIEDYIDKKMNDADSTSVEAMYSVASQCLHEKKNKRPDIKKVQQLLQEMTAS

For the molecule `NC(=O)c1nn(-c2ccc(C(=O)NCCOCCOCCNc3cccc4c3C(=O)N(C3CCC(=O)NC3=O)C4=O)cc2)cc1NC(=O)c1coc(-c2ccnc(NCC(F)(F)F)c2)n1` (stereo not drawn) [Comparative Compound a2, reference compound], the values for the Dmax on IRAK4 [1] (setting [5]), at IRAK4 [2] and on IRAK4 [3] were 88%, 54% and 100%, respectively. Besides, the DC50 on IRAK4 [1] (setting [6]) is 26 nM; at IRAK4 [2], 1 nM; on IRAK4 [3] it was 60 nM; at GSPT1 it was above 10000 nM. For the same molecule, the “Rescue by proteasome or Nedd8 inhibition” value at IRAK4 [4] is reported as “YES”. Moreover, the EC50 with Jurkat cells was above 10000 nM.

In the case of `CC[C@@H]1[C@H](F)C(=O)N[C@@H]1COc1ncc(C#CCN2CCC3(CC2)CCN(c2ncc(C(=O)N[C@H](C(=O)N4C[C@H](O)C[C@H]4C(=O)NCc4ccc(-c5scnc5C)cc4)C(C)(C)C)cn2)CC3)c2cc(C(N)=O)c(OC)cc12` [Comparative b1, reference compound], the Dmax at IRAK4 [1] (setting [5]) came to 95%; at IRAK4 [2] it was 86%; at IRAK4 [3] it was 100%. Also, the DC50 on IRAK4 [1] (setting [6]) was 204 nM; on IRAK4 [2], 70 nM; on IRAK4 [3] it was 80 nM; at GSPT1, above 10000 nM. For the same molecule, the “Rescue by proteasome or Nedd8 inhibition” value on IRAK4 [4] was “YES”. For the same molecule, the EC50 in the test on Jurkat cells was above 10000 nM.

In the case of `CC(C)Nc1cc(-c2ccc3cc(C#N)cnn23)ncc1-c1nnc(N2CCN(C(=O)C3CCN(Cc4ccc5c(c4)C(=O)N(C4CCC(=O)NC4=O)C5=O)CC3)CC2)s1` (stereo not drawn) [Example 13, 7-(5-(5-(4-(1-((2-(2,6-dioxopiperidin-3-yl)-1,3-dioxoisoindolin-5-yl)methyl)piperidine-4-carbonyl)piperazin-1-yl)-1,3,4-thiadiazol-2-yl)-4-(isopropylamino)pyridin-2-yl)pyrrolo[1,2-b]pyridazine-3-carbonitrile], the Dmax on IRAK4 [1] (setting [7]) was 101%; on IRAK4 [1] (setting [8]) it was 100%; at IRAK4 [1] (setting [5]) it was 101%; on IRAK4 [2], 87%; at IRAK4 [3], above 100%. In addition, the DC50 on IRAK4 [1] (setting [9]) was 25.6 nM; on IRAK4 [1] (setting [10]), 27 nM; on IRAK4 [1] (setting [6]) it was 26 nM; on IRAK4 [2] it was 14 nM; at IRAK4 [3] it was 50 nM; at GSPT1, above 10000 nM. Moreover, the “Rescue by proteasome or Nedd8 inhibition” value at IRAK4 [4] is recorded as “YES”. For the same molecule, the EC50 with Jurkat cells is above 10000 nM.

As to `CC(C)Nc1cc(-c2ccc3cc(C#N)cnn23)ncc1-c1nnc(N2CCN(C(=O)C3CCN(CC4CCN(c5ccc(-c6nn(C7CCC(=O)NC7=O)c(=O)n6C)cc5)CC4)CC3)CC2)s1` (stereo not drawn) [Example 24, 7-(5-(5-(4-(1-((1-(4-(1-(2,6-dioxopiperidin-3-yl)-4-methyl-5-oxo-4,5-dihydro-1H-1,2,4-triazol-3-yl)phenyl)piperidin-4-yl)methyl)piperidine-4-carbonyl)piperazin-1-yl)-1,3,4-thiadiazol-2-yl)-4-(isopropylamino)pyridin-2-yl)pyrrolo[1,2-b]pyridazine-3-carbonitrile], the Dmax is 102% at IRAK4 [1] (setting [7]); 112% at IRAK4 [1] (setting [8]); 102% on IRAK4 [1] (setting [5]); 90% on IRAK4 [2]; above 100% at IRAK4 [3]. Besides, the DC50 was 327 nM at IRAK4 [1] (setting [9]); 310 nM on IRAK4 [1] (setting [10]); 327 nM on IRAK4 [1] (setting [6]); 200 nM on IRAK4 [2]; 420 nM on IRAK4 [3]; above 10000 nM on GSPT1. Further, the “Rescue by proteasome or Nedd8 inhibition” value at IRAK4 [4] is reported as “YES”. Moreover, in the test with Jurkat cells, the EC50 was above 10000 nM.

As for `Cc1ncsc1-c1ccc(CNC(=O)[C@@H]2C[C@@H](O)CN2C(=O)[C@@H](NC(=O)CCCC(=O)N2CCN(c3nnc(-c4cnc(-c5ccc6cc(C#N)cnn56)cc4NC(C)C)s3)CC2)C(C)(C)C)cc1` [Example 35, (2S,4R)-1-((S)-2-(5-(4-(5-(6-(3-cyanopyrrolo[1,2-b]pyridazin-7-yl)-4-(isopropylamino)pyridin-3-yl)-1,3,4-thiadiazol-2-yl)piperazin-1-yl)-5-oxopentanamido)-3,3-dimethylbutanoyl)-4-hydroxy-N-(4-(4-methylthiazol-5-yl)benzyl)pyrrolidine-2-carboxamide], the Dmax turned out to be 100% at IRAK4 [1] (setting [7]); 100% at IRAK4 [1] (setting [8]); 100% on IRAK4 [1] (setting [5]); 86% on IRAK4 [2]; 100% at IRAK4 [3]. The DC50 at IRAK4 [1] (setting [9]) was 590 nM; on IRAK4 [1] (setting [10]), 235 nM; on IRAK4 [1] (setting [6]), 590 nM; on IRAK4 [2] it was 200 nM; at IRAK4 [3], 400 nM; on GSPT1 it was above 10000 nM. Also, the “Rescue by proteasome or Nedd8 inhibition” value at IRAK4 [4] is listed as “YES”. In addition, the EC50 with Jurkat cells is above 10000 nM.
